Reference: PMC8786932, “Bicyclic azetidines target acute and chronic stages of Toxoplasma gondii by inhibiting parasite phenylalanyl t-RNA synthetase” (Nature Communications, 2022)
“And” between values parts separate entries of the source, which are not always exact repeats. Equal values may be shown once. Read-outs that look alike come from different tables or passages of the source.

What was measured:
[1] = tested on: A549 (human lung carcinoma); assay: in vitro; type: cell-based; conditions: EC50 host cell/EC50 T. gondii
Description: (§1) For the toxicity screen, compounds were tested in 96-well plates using all the wells as no edge affect was observed. Compounds were diluted to 40 μM (2x concentration in 10% DMEM, 0.4% DMSO) before step-wise, 3-fold dilution in 10% DMEM to create 10-dose series (20 μM to 0.001 μM). Host cells were plated in black, μ-Clear 96-well plates (Greiner Bio-One). We compared several lineages including HepG2 (human hepatocellular carcinoma (ATCC-HB-8065)), THP-1 (human monocytic tumor line), SH-SY5Y (human neuroblastoma (ATCC CRL-2266)), A549 (human lung carcinoma (ATCC CRM-CCL-185)) and Caco-2 (human intestinal adenocarcinoma (ATCC HTB-37)) and HFF (primary human foreskin fibroblast) obtained from the laboratory of John Boothroyd at Stanford University. Cells were maintained in culture media according to the formulations recommended by ATCC. Cells were plated at a density (ranging from of 5 × 10^3 to 2 × 10^4 cells/well (100 μL vol)) resulting in sub-confluent monolayers to allow expansion during the 2 day growth assay. THP-1 cells were treated with 10 ng/ml phorbol 12-myristate 13-acetate (PMA) for 24 h to differentiate into macrophages before compound addition. For all other cells, compounds were added at 6 h post seeding to host cells containing plates (200 μL final volume, 0.2% DMSO) and incubated in culture medium at 37 °C supplemented with 5% CO2. At 44 h post compound addition (50 h total growth time), culture media was aspirated and replaced with Live Imaging solution (ThermoFisher) supplemented with 10 μg/mL Hoeschst 33342 (Sigma) for 20 min at 37 °C. […] Alternatively, plates fixed with 4% formaldehyde for 10 min and stained with 10 μg/mL Hoeschst 33342 (Sigma) for 20 min and imaged using a Cytation 3 multi-mode imager (DAPI, 10x objective, 4 images/well) and nuclei quantified using the Gen5 imager software (v3.08). Assays were repeated with two technical replicates within each of two independent biological replicates.
(§2) All statistical analyses were conducted using Prism 9 (GraphPad Software, Inc.). Dose–response inhibition curves for parasite and host cell toxicity screens (EC50 values) were generated using (Log(inhibitor) vs. normalized response—Variable slope) function. […] For multiple comparisons, two-way ANOVA analysis function using either Sidák’s multiple comparisons test or Dunnett’s multiple comparisons test was applied as indicated.

[2] = tested on: HepG2 (human hepatocellular carcinoma); assay: in vitro; type: cell-based; conditions: EC50 host cell/EC50 T. gondii
Description: as §1, §2

[3] = tested on: ex vivo T. gondii ME49-FLuc bradyzoites from tissue cysts of chronically infected mice; assay: Ex vivo bradyzoite treatment assay (plaque assay); type: cell-based, Toxoplasma gondii; conditions: for growth of ex vivo bradyzoites at EC50: constant treatment, vs DMSO
Description: The brains from CBA/J mice chronically infected with the ME49-FLuc strain were harvested, homogenized, and tissue cysts isolated on Percoll gradients, as described previously[9],[27]. Following isolation, purified tissue cysts were treated with acid-pepsin solution ([…] sodium chloride (NaCl), 60 mM hydrochloric acid (HCl) and freshly made pepsin (0.1 mg/mL in 1xPBS) for 10 min at 37 °C. Following acid-pepsin treatment and addition of neutralization buffer (94 mM sodium carbonate (Na2CO3), liberated bradyzoites were equally distributed into 6-well plates with 5 mL culture media containing compounds or vehicle control (0.1–0.2% DMSO final concentration). Plates were incubated undisturbed for 12–14 days followed by fixation in 100% ethanol (ETOH) for 5 min at RT, rinsing with tap water, staining in 0.1% crystal violet solution for 10 min at RT, rinsing in water and air drying. Plaques were quantified on a Zeiss AxioObserver microscope equipped with a ×2.5 objective (Department of Molecular Microbiology Imaging Facility at the Washington University School of Medicine).

[4] = tested on: firefly luciferase expressing T. gondii strains (GT1, RH, ME49, CTG, MAS, RUB, FOU, VAND); assay: Luciferase-based growth assay, FLuc parasites of diverse genotypes; type: cell-based; conditions: Toxoplasma gondii
Description: In vitro cultures of HFF cells containing mature vacuoles were scraped, passaged through 23 g blunt end needles, and filtered using 3 micron filters. Purified parasites were resuspended in 350 μL of cytomix plus[49] and combined in a BTX 4 mm gap cuvette with 30 μL of PCR amplified templates corresponding to mutations of interest and 10 μg of pSAG1:Cas9-GFP U6:sgTgPheRS^[mut] (in 20 μL, 400 μL total volume, see Supplementary Data 1 for sgRNA sequences) prior to electroporation using a BTX ETM 830 electroporator. Amplified templates for TgPheRS mutations were generated from gBlocks (Integrated DNA Technologies, Coralville, IA, USA) that contain a BclI restriction site that replaces the PAM sequence to protect the repair template from being cut by Cas9. At 16 h post-transfection, transgenic parasites expressing pSAG1:Cas9-GFP were sorted on a Sony SH800 FACS sorter directly into 96-well plates. Single clones containing TgPheRS^[mut] were identified by amplifying a ~500 bp PCR fragment around introduced mutation followed by digestion using BclI (New England Biolabs) BclI sensitive clones were expanded and the locus was Sanger sequenced to verify incorporation of each independent mutation. To generate firefly luciferase (FLuc) expressing strains, freshly harvested parasites were combined with 20 μg of pTUB-FLUC DHFR flox plasmid and 10 μg of pSAG1:Cas9-GFP U6:sgUPRT[50] (in 50 μL cytomix plus) and transformed by electroporation as described above. Parasites were allowed to recover overnight followed by sequential selection with pyrimethamine (1.0 μM) and 5-flurodeoxyuracil (FUDR, 10 μM), as described previously. Stable clones were isolated by limiting dilution and a clone from each genetic background selected based on high luciferase activity (Table 1).
All assays were carried out in a 96-well plate format containing confluent HFF monolayers to support parasite growth. To avoid edge effects, only the inner 60 wells of each plate were used. All compounds described were provided by the Broad Institute as 10 mM stocks in 100% DMSO and stored at −80 °C prior to use. Pyrimethamine (Sigma-Aldrich) was prepared as 5 mM stock in 100% DMSO and stored at −20 °C prior to use.

[5] = Constant treatment, Fig 5H top 4, replicates
[6] = Washout, Fig 5H top 4, replicates

## COc1ccc(NC(=O)N2CCCCN3[C@H](CN(C)S(C)(=O)=O)[C@H](c4ccc(C#Cc5ccccc5)cc4)[C@@H]3C2)cc1 [BRD8494]
[1]
  A549 fold selectivity: > 571.4 fold
[2]
  HEPG2 fold selectivity: 571.4 fold
[3]; [5]
  Ex vivo bradyzoite plaques, normalised to DMSO = 100: 0.5 and 0.2 and 1.9
[3]; Constant, EC50 concentration, Fig 5J
  Ex vivo bradyzoite plaques, normalised to DMSO = 100: 100 and 95.62 and 97.45
[3]; EC50 concentration
  growth of ex vivo bradyzoites at EC50: did not inhibit the growth
[3]; EC90 and 3×EC90, constant treatment
  growth of ex vivo bradyzoites at higher concentrations: nearly eliminated growth
[3]; Washout, 3xEC90 concentration, Fig 5J
  Ex vivo bradyzoite plaques, normalised to DMSO = 100: 97.62 and 100
[3]; Washout, EC50 concentration, Fig 5J
  Ex vivo bradyzoite plaques, normalised to DMSO = 100: 100 and 96.6 and 91.18
[3]; Washout, EC90 concentration, Fig 5J
  Ex vivo bradyzoite plaques, normalised to DMSO = 100: 100
[3]; [6]
  Ex vivo bradyzoite plaques, normalised to DMSO = 100: 1.087 and 0.74 and 4.5

## COc1ccc(NC(=O)N2CCCCN3[C@H](CN(C)C)[C@H](c4ccc(C#Cc5ccccc5)cc4)[C@@H]3C2)cc1 [BRD7929]
[4]; GT1, all eight lineages, read-out: EC50 against tachyzoite growth, all lineages
  EC50: < 50 nM
[4]; GT1, strain CTG, type III, N. America, read-out: EC50
  EC50: 31.5 nM
[4]; GT1, strain FOU, type VI, Europe, read-out: EC50
  EC50: 45.1 nM
[4]; GT1, strain GT1, type I, N. America, read-out: EC50
  EC50: 16.1 nM
[4]; GT1, strain MAS, type IV, Europe, read-out: EC50
  EC50: 42 nM
[4]; GT1, strain ME49, type II, Europe, read-out: EC50
  EC50: 49.4 nM
[4]; GT1, strain RH, type I, Europe, read-out: EC50
  EC50: 24.1 nM
[4]; GT1, strain RUB, type V, S. America, read-out: EC50
  EC50: 26.9 nM
[4]; GT1, strain VAND, type X, S. America, read-out: EC50
  EC50: 27.9 nM
[3]; 3×EC90, constant treatment
  growth inhibition of ex vivo bradyzoites: 99%
[3]; 3×EC90, short-term (4 h) treatment then washout
  effect after washout: sustained following washout
[3]; [5]
  Ex vivo bradyzoite plaques, normalised to DMSO = 100: 1.0 and 0.2 and 1.9
[3]; EC50 concentration
  growth of ex vivo bradyzoites at EC50: only partially reduced growth
[3]; EC90, constant treatment
  growth inhibition of ex vivo bradyzoites: 93%
[3]; Washout, EC50 concentration, Fig 5I
  Ex vivo bradyzoite plaques, normalised to DMSO = 100: 66.67 and 75.15 and 100
[3]; Washout, EC90 concentration, Fig 5I
  Ex vivo bradyzoite plaques, normalised to DMSO = 100: 83.91
[3]; [6]
  Ex vivo bradyzoite plaques, normalised to DMSO = 100: 2.174 and 0.37 and 0.00000000

## COc1ccc(NC(=O)N2CCCCN3[C@H](CO)[C@H](c4ccc(C#Cc5ccccc5)cc4)[C@@H]3C2)cc1 [BRD3444]
[2]
  HEPG2 fold selectivity: 390.6 fold
[3]; [5]
  Ex vivo bradyzoite plaques, normalised to DMSO = 100: 0.5 and 0.2 and 1.9
[3]; [6]
  Ex vivo bradyzoite plaques, normalised to DMSO = 100: 1.087 and 0.00000000 and 9.1

## CN(C[C@@H]1[C@H](c2ccc(C#Cc3ccccc3)cc2)[C@@H]2CN(C(=O)Nc3ccc(OC4CC4)cc3)CCCCN12)S(C)(=O)=O [BRD2987]
[1]
  A549 fold selectivity: 114.0 fold
[3]; [5]
  Ex vivo bradyzoite plaques, normalised to DMSO = 100: 0.5 and 0.7 and 3.9
[3]; [6]
  Ex vivo bradyzoite plaques, normalised to DMSO = 100: 6.522 and 15.2 and 18.2
